In this experiment the test system is C3H mice. The experiment is described as follows: Telogen Conversion Assay. The experiment is classed as in vivo. The note with it: for hair regrowth (regrowth score, FIG. 1): applied daily, week 3 and week 4, at the appropriate dose-level, compared to the control group; for hair growth (average grade): grades of 7 mice after 23 days, example written in present tense; for Average Grades: average of 7 mice, visual grade 0 (pink skin) to 4 (full anagen), topical. How it is done: FP receptor antagonists are tested for their potential to […] using the Telogen Conversion Assay. The Telogen Conversion Assay measures the potential of a FP receptor antagonist to inhibit the conversion of mice in the resting stage of the hair growth cycle (“telogen”), to the growth stage of the hair growth cycle (“anagen”), and to assess the rate of anagen growth.
Without intending to be limited by theory, there are three principal phases of the hair growth cycle: anagen, catagen, and telogen. It is believed that there is a longer telogen period in C3H mice (Harlan Sprague Dawley, Inc., Indianapolis, Ind.) from approximately 40 days of age until about 75 days of age, when hair growth is synchronized. It is believed that after 75 days of age, hair growth is no longer synchronized. Wherein about 40 day-old mice with dark fur (brown or black) are used in hair growth experiments, melanogenesis occurs along with hair (fur) growth wherein the topical application of hair growth inducers is evaluated. The Telogen Conversion Assay herein is used to screen FP receptor antagonists for potential hair growth by measuring melanogenesis and/or inhibition of expected hair growth.
Three groups of 44 day-old C3H mice are used: a vehicle control group, a positive control group, and a test FP receptor antagonist group, wherein the test FP receptor antagonist group is administered a FP receptor antagonist F used in the method of this invention. The length of the assay is typically 24 days with 15 treatment days (wherein the treatment days occur Mondays through Fridays). Day 1 is the first day of treatment. Typical dosage concentrations are set forth in Table 1, however the skilled artisan will readily understand that such concentrations may be modified.
The mice are treated topically Monday through Friday on their lower back (base of tail to the lower rib). A pipette and tip are used to deliver 400 μl to each mouse's back. The 400 μL application is applied slowly while moving hair on the mouse to allow the application to reach the skin.
While each treatment is being applied to the mouse topically, a visual grade of from 0 to 4 will be given to the skin color in the application area of each animal. As a mouse converts from telogen to anagen, its skin color will become more bluish-black.

As to `O=C(N[C@H](c1ccccc1)c1ccccn1)[C@@H]1SCCN1S(=O)(=O)c1ccc(-c2ccccc2)cc1` [Example 3], the “hair regrowth (regrowth score, FIG. 1)” value is given as “inhibited hair regrowth” and the “hair growth (average grade)” value is reported as “significantly reduces hair growth”.

In the case of `O=C(O)CCC/C=C\CC1C(/C=C/[C@H](O)C2Cc3ccccc3C2)[C@@H](F)C[C@@H]1O` (stereo partly drawn) [Example 1], the “Average Grades” value (23 Days) came out at 0.4, the “Average Grades” value (25 Days) is listed as 0.1 and the “Average Grades” value (26 Days) is 0.7. Turning to `CC(C)OC(=O)CCC/C=C\CC1C(/C=C/[C@H](O)C2Cc3ccccc3C2)[C@@H](F)C[C@@H]1O` (stereo partly drawn) [Example 4], the “hair growth (average grade)” value was “significantly reduces hair growth”.

Regarding “Ile-Leu-Gly-His-(citrulline)-Asp-Tyr-Lys [Example 5]”, the “hair growth (average grade)” value is “significantly reduces hair growth”. Turning to `COC(=O)CCC/C=C\CC1C(/C=C/[C@H](O)C2Cc3ccccc3C2)[C@@H](F)C[C@@H]1O` (stereo partly drawn) [Example 2], the “hair regrowth (regrowth score, FIG. 1)” value is on record as “inhibited hair regrowth”. Also, for the setting “23 Days”, the “Average Grades” value is recorded as 0.1.

(Values after patent US10159634B2, “Compositions and methods for inhibiting hair growth” (priority 2009, dated 2018).)
